Legend:
Experiment in all cases: relative viability (nuclei count vs DMSO), 5 days (fraction); higher = more cells survive
Ispinesib + Navitoclax = compound: Cc1ccc(C(=O)N(CCCN)[C@@H](c2nc3cc(Cl)ccc3c(=O)n2Cc2ccccc2)C(C)C)cc1 [Ispinesib] + CC1(C)CCC(c2ccc(Cl)cc2)=C(CN2CCN(c3ccc(C(=O)NS(=O)(=O)c4ccc(N[C@H](CCN5CCOCC5)CSc5ccccc5)c(S(=O)(=O)C(F)(F)F)c4)cc3)CC2)C1 [Navitoclax] (partner 0.5 µM)
Method in brief: (§1)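 Lung cancer cell lines in 1536-well plates got either a single drug or a fixed anchor-drug dose together with five library-drug doses (not always all listed) in √10 steps, by pin tool, on the day after seeding. Nuclei were counted after 5 days, and relative viability is the treated-to-vehicle ratio of nuclei counts. Values are medians of duplicate plates.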

Linsitinib + Foretinib = compound: C[C@]1(O)C[C@@H](c2nc(-c3ccc4ccc(-c5ccccc5)nc4c3)c3c(N)nccn32)C1 [Linsitinib] + COc1cc2c(Oc3ccc(NC(=O)C4(C(=O)Nc5ccc(F)cc5)CC4)cc3F)ccnc2cc1OCCCN1CCOCC1 [Foretinib] (partner 0.25 µM)
Method in brief: as §1

Ispinesib + Linsitinib = compound: Cc1ccc(C(=O)N(CCCN)[C@@H](c2nc3cc(Cl)ccc3c(=O)n2Cc2ccccc2)C(C)C)cc1 [Ispinesib] + C[C@]1(O)C[C@@H](c2nc(-c3ccc4ccc(-c5ccccc5)nc4c3)c3c(N)nccn32)C1 [Linsitinib] (partner 1 µM)
Method in brief: as §1

Linsitinib + Bortezomib = compound: C[C@]1(O)C[C@@H](c2nc(-c3ccc4ccc(-c5ccccc5)nc4c3)c3c(N)nccn32)C1 [Linsitinib] + CC(C)C[C@H](NC(=O)[C@H](Cc1ccccc1)NC(=O)c1cnccn1)B(O)O [Bortezomib] (partner 0.002 µM)
Method in brief: as §1

Cell Line | relative viability (Ispinesib + Navitoclax; first compound 0.001 µM) | relative viability (Ispinesib + Navitoclax; first compound 0.003162 µM) | relative viability (Ispinesib + Navitoclax; first compound 0.01 µM) | relative viability (Ispinesib + Navitoclax; first compound 0.03162 µM) | relative viability (Ispinesib + Navitoclax; first compound 0.1 µM) | relative viability (Linsitinib + Foretinib; first compound 0.01 µM) | relative viability (Linsitinib + Foretinib; first compound 0.03162 µM) | relative viability (Linsitinib + Foretinib; first compound 0.1 µM) | relative viability (Linsitinib + Foretinib; first compound 0.3162 µM) | relative viability (Linsitinib + Foretinib; first compound 1 µM) | relative viability (Ispinesib + Linsitinib; first compound 0.001 µM) | relative viability (Ispinesib + Linsitinib; first compound 0.003162 µM) | relative viability (Ispinesib + Linsitinib; first compound 0.01 µM) | relative viability (Ispinesib + Linsitinib; first compound 0.03162 µM) | relative viability (Ispinesib + Linsitinib; first compound 0.1 µM) | relative viability (Linsitinib + Bortezomib; first compound 0.01 µM) | relative viability (Linsitinib + Bortezomib; first compound 0.03162 µM) | relative viability (Linsitinib + Bortezomib; first compound 0.1 µM) | relative viability (Linsitinib + Bortezomib; first compound 0.3162 µM) | relative viability (Linsitinib + Bortezomib; first compound 1 µM)
CAL-12T | 1.28 | 1.4 | 1.47 | 0.537 | 0.177 | 1.08 | 1.13 | 1.18 | 0.752 | 1.1 | 0.98 | 0.784 | 0.785 | 0.778 | 0.193 | 0.873 | 0.882 | 0.996 | 0.833 | 0.817
NCI-H1993 | 0.869 | 0.944 | 0.87 | 0.84 | 0.526 | 0.753 | 0.724 | 0.653 | 0.759 | 0.657 | 0.631 | 0.724 | 0.749 | 0.716 | 0.675 | 1.26 | 1.29 | 1.32 | 0.797 | 0.695
LXF-289 | 0.934 | 0.995 | 1.12 | 0.922 | 0.469 | 0.968 | 0.944 | 0.984 |  | 0.994 | 0.914 | 0.987 | 1.09 | 0.936 | 0.542 | 0.95 | 0.96 | 0.994 | 0.743 | 0.977
LU99A | 0.857 | 0.757 | 1.02 | 0.627 | 0.141 | 0.766 | 0.839 | 0.838 | 0.553 | 0.662 | 0.573 | 0.587 | 0.509 | 0.336 | 0.167 | 1.15 | 1.04 | 1.19 | 0.34 | 0.693
SW 1573 | 1.22 | 1 | 1.21 | 0.915 | 0.17 | 0.959 | 0.912 | 0.764 | 0.744 | 0.628 | 0.934 | 0.743 | 0.983 | 0.801 | 0.453 | 1.18 | 1.19 | 1.1 | 0.797 | 0.811
COR-L23 | 1.06 | 1.15 | 1.34 | 0.192 | 0.124 | 0.892 | 0.996 | 0.905 | 0.834 | 0.861 | 1.12 | 0.946 | 1 | 0.161 | 0.16 | 0.861 | 1.03 | 1.08 | 0.896 | 1.06
NCI-H1755 | 1.01 | 1.15 | 1.09 | 0.917 | 0.7 | 0.864 | 0.892 | 0.956 | 0.865 | 0.8 | 1.03 | 1.1 | 1.14 | 0.906 | 0.422 | 0.939 | 0.882 | 0.981 | 0.661 | 0.794
LOU-NH91 | 0.647 | 0.71 | 0.64 | 0.407 | 0.333 | 0.953 | 0.939 | 0.879 | 0.926 | 0.842 | 0.875 | 0.908 | 0.887 | 0.695 | 0.677 | 0.436 | 0.504 | 0.581 | 0.429 | 0.478

Reference: the supplement of paper PMC10307832
